# Bridge positions count the residues as written; N and C are the ends.
# Experiments:
# [1] = test system: M. catarrhalis in human blood-derived macrophages (BDMs); assay: Colony forming unit assay in blood-derived macrophages infected with M. catarrhalis; type: cell-based, Moraxella catarrhalis; conditions: MOI 0.5 or 1; defensin 1 12.5 µM or sarcotoxin 1 C 0.39 µM added 1 or 5 h post-infection; further 16 h; lysis with 1% saponin, plating; vs assays without peptide
# Procedure: The absolute number of bacterial cells after treatment with defensin 1 or sarcotoxin 1 C was determined by counting the colony forming units (CFUs). M. catarrhalis overnight cultures prepared as described above were grown to the mid-exponential phase (~5 x 10^8 cells/ml) in BHI medium before dilution to 2 × 10^7 cells/ml in PBS containing 0.15% gelatin, and blood-derived macrophages (BDMs) were infected with a multiplicity of infection (MOI) of 0.5 or 1. […] Cells were then incubated for an additional 16 h at 37°C and 5% CO2 and then lysed with 1% saponin. Lysates were plated on sheep blood agar and cultivated for a further 15 h at 37°C and 5% CO2 before manual counting of the colonies on each plate.
# All donors gave informed written consent (Ethics approval number: 161/17). Human BDMs were cultured as previously described. Briefly, primary human monocytes were isolated from donor buffy coats by selection for CD14^+ cells using CD14 Microbeads (Miltenyi Biotec, Bergisch Gladbach, Germany). Monocytes were grown in RPMI1640 medium with 1% human AB serum at 37°C and 5% CO2 on ultra-low attachment plates (Sigma-Aldrich, Munich, Germany). After 6 days, differentiated macrophages were detached, seeded at the desired density and incubated for 24 h before further analysis.
# M. catarrhalis = assay: AMP inhibitory testing without macrophages, dilution and plating (Figure S1); type: cell-based, Moraxella catarrhalis
# Procedure: Colonies of M. catarrhalis were grown on sheep blood agar plates for 12 h at 37°C and 5% CO2 before transfer to brain heart infusion (BHI) medium (Carl Roth, Karlsruhe, Germany) at an initial concentration of 1.6 × 10^7 cells/ml (OD600 = 0.08) as determined using an Ultraspec 10 cell densitometer (Amersham BioSciences, Little Chalfont, UK). Bacteria were cultivated in a shaking incubator at 37°C until the concentration reached 1.2 × 10^8 cells/ml (OD600 = 0.6) and then diluted to 2 × 10^6 cells/ml (OD600 = 0.011). To establish the optimal concentration ranges for AMP activity, defensin 1 was prepared as a two-fold dilution series from 12.5 µM to 1.56 µM and was added to the bacterial cultures, which were incubated as above for a further 16 h. Untreated cultures were used as controls. The OD600 was measured automatically at 30-min intervals using an Infinite M200 Pro plate reader (Tecan Life Sciences, Männedorf, Switzerland). […] They were cultivated for a further 15 h at 37°C and 5% CO2 in serial dilution before manual counting of the colonies on each plate.
# [2] = test system: BDMs infected with M. catarrhalis; assay: Multiplex ELISA of cytokines in BDM supernatant after infection; type: cell-based, human; conditions: defensin 1 12.5 µM, 1 or 5 h post-infection, MOI 0.5 or 1
# Procedure: (§1) The presence of cytokines in the BDM supernatant after infection and treatment with 12.5 µM defensin 1 was assessed using the MAGPIX Multiplex ELISA (Luminex, Austin, TX, USA). BDM supernatants were prepared as recommended for the MAGPIX system. The cytokine panel comprised MIP1-α, MCP1, IL-1β, IL-6, IL-8, IL-10, IL-12p70, IL-23, LAP and TNF-α.
# (§2) Statistical interpretation of the multiplex ELISA data required the incorporation of data points outside the detection range and adjustments for the effect of parallel technical measurements from the same biological samples. We therefore used the Hodges and Lehmann nonparametric aligned ranks test to compare cytokine secretion by treatment time within treatment groups and between the following control and treatment groups: […]
# BDMs activated by LPS = assay: Sterile activation of BDMs by LPS; type: cell-based, human; conditions: defensin 1 added 1 h after LPS
# Procedure: as §1, §2
# E. faecalis = assay: Growth kinetics of commensal E. faecalis; type: cell-based, Enterococcus faecalis; conditions: liquid BHI medium, 37°C, OD600 every 30 min; defensin 1 12.5 µM, sarcotoxin 1 C 0.39 µM
# Procedure: (§3) For the analysis of commensal bacteria, E. faecalis was grown on Columbia agar plates or in liquid BHI medium, and E. coli was grown on McConkey agar or in liquid LB medium. After overnight culture on agar plates at 37°C and 5% CO2, both species were transferred to liquid medium at an initial OD600 of 0.005. The cultures were maintained in a shaking incubator at 37°C, and the OD600 was measured automatically at 30-min intervals as above.
# E. coli = assay: Growth kinetics of commensal E. coli; type: cell-based, Escherichia coli; conditions: liquid LB medium, 37°C, OD600 every 30 min; defensin 1 12.5 µM, sarcotoxin 1 C 0.39 µM
# Procedure: as §3
# [3] = up to a concentration of 100 µM; cited from earlier work
substance,measurement,setting,value
"H-VTCDLLSAEAKGVKVNHAACAAHCLLKRKRGGYCNKRRICVCRN-OH (disulfide 3-34, 20-40, 24-42 (inferred)) [Defensin 1]",M. catarrhalis CFU count (bacterial burden) in infection assay of primary BDMs,[1],reduced the bacterial burden
same,effect on bacterial growth upon dilution of the AMP by plating,"M. catarrhalis; defensin 1 12.5 µM or sarcotoxin 1 C 0.39 µM in BHI, diluted in PBS with 0.15% gelatin, plated on sheep blood agar, 15 h, Figure S1",efficiently killed the bacteria
same,bactericidal or bacteriostatic capacity,M. catarrhalis; growth of M. catarrhalis after dilution of the AMP,bactericidal
same,bacteria-induced secretion of IL-1β,[2],inhibited
same,bacteria-induced secretion of IL-10,[2],inhibited
same,bacteria-induced secretion of IL-12p70,[2],inhibited
same,bacteria-induced secretion of IL-23,[2],inhibited
same,sterile activation of BDMs by LPS in presence of peptide,BDMs activated by LPS,not significantly affected
same,effect on growth of E. faecalis,E. faecalis,minor growth delay
same,effect on growth of E. coli,E. coli,minor growth delay
same,hemolytic activity,[3],minimal hemolytic activity

# From paper PMC8043168, “Tribolium castaneum defensin 1 kills Moraxella catarrhalisin an in vitro infection model but does not harm commensal bacteria” (Virulence, 2021)
